SMILES strings stand for the structures.

The nature of this data set: in vitro. Conditions: human, hela cells, % viability.
With `NS(=O)(=O)c1ccc(CCNC(=O)Nc2ccc(Cl)c(Cl)c2)cc1` [CBK269133], the viability (commonly a read-out of living cells in per cent, often relative to untreated cells) at 28.5 h, 10 µM is 90.3%.

For `Cc1cc(C)n(-c2nc3ccccc3nc2N2CCN(S(=O)(=O)c3ccc4ccccc4c3)CC2)n1` [CBK269134], the viability at 28.5 h, 10 µM is 103%.

For the compound `COCCNC(=O)C1CCCCC1C(=O)O` (centres unmarked) [CBK269135], the viability at 28.5 h, 10 µM was 108%.

For the compound `Cc1nn(C(C)CC(=O)O)c(C)c1Br` (centres unmarked) [CBK269138], the viability at 28.5 h, 10 µM was determined as 91.7%.

Regarding `N#C/C(=C/c1ccc(Sc2nc3ccccc3[nH]2)o1)c1ccc(C(=O)O)cc1` [CBK269141], the viability at 28.5 h, 10 µM amounted to 112%.

`Oc1ccc(Nc2ncnc3scc(-c4ccccc4)c23)cc1` [CBK269146C]: the viability at 28.5 h, 10 µM is 108%.

For `O=C(NCC(c1ccccc1)c1c[nH]c2ccccc12)Nc1ccc(Cl)cc1` (centres unmarked) [CBK269147], the viability at 28.5 h, 10 µM worked out at 91.9%.

Turning to `COc1ccc(CC(=O)Nc2cccc(-c3cn4ccc(C)cc4n3)c2)cc1OC` [CBK269148], the viability at 28.5 h, 10 µM is 84.5%.

Take `Cn1c(SCC(=O)O)nnc1-c1cc(Br)ccc1O` [CBK269150]: the viability at 28.5 h, 10 µM stood at 103%.

Turning to `CCc1cccc(CN2CCC(CNC(=O)Nc3ccc(Cl)cc3)CC2)c1` [CBK269151], the viability at 28.5 h, 10 µM was 93.4%.

Regarding `CCOC(=O)c1cnc(SCC(=O)N2CCN(c3ccccc3)CC2)nc1N` [CBK269159], the viability at 28.5 h, 10 µM amounted to 90.5%.

`O=C(O)CCCNS(=O)(=O)c1ccc(I)cc1` [CBK269160]: the viability at 28.5 h, 10 µM was 102%.

Turning to `COc1ccc(S(=O)(=O)N2CCCC(C(=O)Nc3ccc(C(N)=O)cc3)C2)cc1C` (centres unmarked) [CBK269163], the viability at 28.5 h, 10 µM was 99.4%.

Take `O=C(O)c1cccc(CSc2nnc(-c3ccccc3)c(-c3ccccc3)n2)c1` [CBK269165]: the viability at 28.5 h, 10 µM was found to be 97.6%.

`O=C(CSCCO)Nc1ccc(Oc2ccccc2)cc1` [CBK269167]: the viability at 28.5 h, 10 µM worked out at 98.4%.

For `COC(=O)c1c(NC(=O)C(=O)NCc2cccnc2)sc2c1CCCC2` [CBK269170], the viability at 28.5 h, 10 µM was determined as 88.8%.

Turning to `COc1cccc(C(=O)c2snc(Nc3ccc(F)cc3)c2N)c1` [CBK269173], the viability at 28.5 h, 10 µM was 117%.

Consider `COc1ccccc1C(=O)NCCNC(=O)c1ccccn1` [CBK269174], for which the viability at 28.5 h, 10 µM stood at 104%.

As for `Cc1cc2occ(CC(=O)NCc3ccccn3)c2c(C)c1Cl` [CBK269175], the viability at 28.5 h, 10 µM came out at 97.5%.

On to `CN1CCN(Cc2nc3c(c(=O)n(C)c(=O)n3C)n2Cc2c(F)cccc2Cl)CC1` [CBK269179], for which the viability at 28.5 h, 10 µM worked out at 98.3%.

As to `CC1(C)Cc2nc3sc4c(=O)n(CC(=O)NCCc5ccccc5)cnc4c3cc2CS1` [CBK269180], the viability at 28.5 h, 10 µM is 97.8%.

With `O=C(c1ccccc1Cl)N1N=C(c2cccnc2)CC1c1ccccc1O` (centres unmarked) [CBK269182], the viability at 28.5 h, 10 µM was 102%.

Turning to `Cc1nnc2sc(-c3cccc4ccccc34)nn12` [CBK269185], the viability at 28.5 h, 10 µM came out at 39.8%.

Regarding `CC1CCCCN1Cc1nc2c(c(=O)n(C)c(=O)n2C)n1CCc1ccccc1` (centres unmarked) [CBK269189], the viability at 28.5 h, 10 µM was found to be 117%.

As for `COc1ccc(N2CCN(C(=S)c3ccc(OCC(N)=O)cc3)CC2)cc1` [CBK269190], the viability at 28.5 h, 10 µM was 100%.

Turning to `O=C(Nc1cccc(F)c1)C(c1ccccc1)N1CCOCC1` (centres unmarked) [CBK269191], the viability at 28.5 h, 10 µM worked out at 84.5%.

Consider `CCOc1ccc(CNc2ccc(N3CCOCC3)c(C(=O)O)c2)cc1OC` [CBK269192], for which the viability at 28.5 h, 10 µM is 93%.

As to `O=C(NCCCNC(=O)c1ccccn1)c1ccc(Cl)cc1` [CBK269193], the viability at 28.5 h, 10 µM was 88.5%.

On to `Cc1ncc([N+](=O)[O-])n1CC(=O)NC1CCCCCC1` [CBK269194], for which the viability at 28.5 h, 10 µM was 97.4%.

For `COc1cc(Cl)cc(CNCCO)c1OC(C)C` [CBK269196C], the viability at 28.5 h, 10 µM stood at 86.7%.

`O=C1CC(N2CCN(C3CC(=O)N(Cc4ccccc4)C3=O)CC2)C(=O)N1Cc1ccccc1` (centres unmarked) [CBK269198]: the viability at 28.5 h, 10 µM is 122%.

For the compound `CC1CCCCN1Cc1nc2c(c(=O)n(C)c(=O)n2C)n1Cc1ccccc1` (centres unmarked) [CBK269203], the viability at 28.5 h, 10 µM stood at 105%.

Take `CC1(C)CC(=O)C2=C(C1)c1onc(N)c1C2Cc1ccccc1` (centres unmarked) [CBK269206]: the viability at 28.5 h, 10 µM was 110%.

As to `COc1ccc(OC)c(NC(=O)CSc2nnc(-c3ccncc3)s2)c1` [CBK269209], the viability at 28.5 h, 10 µM worked out at 97.2%.

For the compound `O=S(=O)(N1CCCCCC1)N1CCN(S(=O)(=O)N2CCCCCC2)CC1` [CBK269210], the viability at 28.5 h, 10 µM came to 88.3%.

With `C=C(C)CN1CCN(C(=O)c2cc3cccc(OC)c3oc2=O)CC1` [CBK269211], the viability at 28.5 h, 10 µM is 59%.

For the compound `O=C(CN1CCOCC1)NC(=O)Nc1ccccc1` [CBK269213], the viability at 28.5 h, 10 µM was determined as 98%.

As to `COCCN(Cc1cc2ccc(C)cc2nc1O)S(=O)(=O)c1ccccc1` [CBK269216], the viability at 28.5 h, 10 µM is 99.6%.

As for `COC(=O)c1c(NC(=O)C2CC(=O)NN2C)sc2c1CCC2` (centres unmarked) [CBK269218A], the viability at 28.5 h, 10 µM came out at 89.2%.

For the compound `O=S(=O)(N1CCCCCC1)N1CCNCC1` [CBK269219C], the viability at 28.5 h, 10 µM turned out to be 96.5%.

Consider `Cc1ccccc1OCc1nn2c(C)nnc2s1` [CBK269220], for which the viability at 28.5 h, 10 µM was determined as 100%.

For `COC(=O)c1ccc(N2CCN(C)CC2)c(NC(=O)c2cc(Br)ccc2OC)c1` [CBK269221], the viability at 28.5 h, 10 µM is 92%.

Turning to `Cc1ccc(S(=O)(=O)NCCc2ccccn2)s1` [CBK269223], the viability at 28.5 h, 10 µM came out at 102%.

As to `Cn1c(=O)c2c(nc(CN3CCOCC3)n2Cc2c(F)cccc2Cl)n(C)c1=O` [CBK269224], the viability at 28.5 h, 10 µM stood at 98.9%.

`Cc1nnc(SCC(=O)Nc2nonc2C)s1` [CBK269227]: the viability at 28.5 h, 10 µM turned out to be 98.9%.

`CSCCC(C(=O)O)n1c(S)nnc1-c1ccc2ccccc2n1` (centres unmarked) [CBK269230]: the viability at 28.5 h, 10 µM turned out to be 99.5%.

As for `COc1ccc(-c2oc3ccccc3c(=O)c2OCC(=O)O)cc1` [CBK269232], the viability at 28.5 h, 10 µM worked out at 98.7%.

Consider `O=C(NCCCN1CCOCC1)Nc1ccccc1F` [CBK269233], for which the viability at 28.5 h, 10 µM amounted to 88.6%.

As for `c1ccc(Cn2c(CN3CCCCC3)nc3ccccc32)cc1` [CBK269237], the viability at 28.5 h, 10 µM worked out at 102%.

Turning to `O=C(CCN1C(=O)c2ccc(Br)cc2C1=O)N1CCN(Cc2ccccc2)CC1` [CBK269238], the viability at 28.5 h, 10 µM was found to be 104%.

For `COC(=O)c1ccc(NC(=O)CSc2nnc(-c3ccncc3)s2)cc1` [CBK269239], the viability at 28.5 h, 10 µM was 103%.

Take `COc1ccc(/C=C/c2nc(C#N)c(NCc3cccnc3)o2)cc1OC` [CBK269240]: the viability at 28.5 h, 10 µM was found to be 91.3%.

Take `O=C(NCCc1cc2ccccc2[nH]1)Nc1cccc2ccccc12` [CBK269246]: the viability at 28.5 h, 10 µM is 106%.

Consider `COc1ccccc1NC(=O)c1sc2nc(N3CCOCC3)c3c(c2c1N)CCCC3` [CBK269247], for which the viability at 28.5 h, 10 µM is 103%.

As for `Cc1c(NC(=O)CN2CCCC(C)C2)ccc2nsnc12` (centres unmarked) [CBK269248], the viability at 28.5 h, 10 µM was found to be 97.4%.

For the compound `Cc1ccc(C(=O)N2CCN(S(=O)(=O)N3CCCCCC3)CC2)cc1` [CBK269249], the viability at 28.5 h, 10 µM amounted to 101%.

Regarding `CS(=O)(=O)N1CCN(c2ccccc2NC(=O)COc2ccccc2Cl)CC1` [CBK269250], the viability at 28.5 h, 10 µM turned out to be 103%.

Regarding `O=C(O)c1cccc(-n2c(S)nnc2-c2cnccn2)c1` [CBK269252], the viability at 28.5 h, 10 µM was determined as 104%.

Take `O=C(COc1ccc(S(=O)(=O)N2CCCCC2)cc1Cl)NCc1ccccn1` [CBK269253]: the viability at 28.5 h, 10 µM worked out at 89.6%.

The values above are taken from article PMC12040169 (PLOS Biology, 2025).
